The subject of series [1] is SARS-CoV-2 (COVID-19 disease). Description: Treatment of SARS-CoV-2 positive patients with oral Nystatin tablets.
Series [2] deals with SARS-CoV. The note with it: cited from earlier work.
Series [3] deals with SARS-CoV-2 early Wuhan strain (CMC-1). Description: microbe, parasite or virus in culture. The format is cell-based.
Series [4] has as its system VERO E6 cell line. Particulars: Tables 1, 2 and FIGS. 3A, 3B.

SMILES strings stand for the structures. Values after ≈ are worked out from the molar mass of the structure shown.

Turning to `C[C@@H]1[C@H](O)[C@@H](C)/C=C/C=C/CC/C=C/C=C/C=C/C=C/[C@H](OC2O[C@@H](C)[C@H](O)[C@@H](N)[C@H]2O)C[C@@H]2OC(O)(C[C@@H](O)[C@H](O)CC[C@@H](O)C[C@@H](O)C[C@@H](O)CC(=O)O[C@H]1C)C[C@H](O)[C@H]2C(=O)O` (some centres unmarked) [Nystatin, nystatin], the “course of complaints under treatment” value was “complaints steadily decreased and disappeared after 10 days” in series [1] (Patient 1, 3×2 Nystatin tablets (500,000 IU) per day for 10 days); “free of complaints” in series [1] (Patient 2, 3×2 Nystatin tablets (500,000 IU) per day for 15 days); “free of complaints” in series [1] (Patient 3, 3×2 Nystatin tablets (500,000 IU) per day for 15 days). In addition, the body temperature came to 37.5 °C in series [1] (Patient 4, 9 Apr. 2021 (day 9), one day after start of Nystatin, before 39-39.8° C.); 36.9 °C in series [1] (Patient 4, 10 Apr. 2021 (day 10)); 36.3 °C in series [1] (Patient 4, 11 Apr. 2021 (day 11)). In addition, the state after treatment result in series [1] (Patient 4, Nystatin from 8 Apr. 2021, 3×2 tablets daily, state on 14 Apr. 2021) was ““post-covid” asymptomatic state”. Moreover, the “effectiveness against SARS-CoV in vivo” value in series [2] is reported as “not proved to be effective”. In addition, the “microscopic image of tissue culture at the end of the incubation period” value in series [3] (CMC-1 virus treated with 60 μg/ml nystatin, FIG. 4C) was “both cells with lysed and intact morphology can be seen”. In series [3] (Severe acute respiratory syndrome coronavirus 2, Vero C1008), this compound returned an IC50 of 60 µg/mL (≈ 64.8 µM). The “toxicity of nystatin itself to the cultured cells” value in series [4] is “toxic to the cultured cells”.

As a reminder, the IC50 is the concentration that gives 50% inhibition. Read a low IC50 as higher potency.

The record behind these values is patent US20240207297A1 (priority 2021, published 2024).
